The values that follow come from US10681908B2, “Molecules having pesticidal utility, and intermediates, compositions, and processes, related thereto” (Dow AgroSciences LLC, priority 2016, dated 2020).

Common to all, as to format: in vivo
In series [1] the test system is Cabbage Looper (Trichoplusia ni, TRIPNI). In words: Bioassay on Cabbage Looper (CL), 128-well diet tray assay. The note with it: 168 h, 50 μg/cm^2 on artificial diet, second instar larvae, five to seven days, 25° C., read-out: CL % Control (or Mortality) rating. The gist of the method:
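Percent mortality, averaged over eight wells, scored after five to seven days at 25° C. under 14:10 light-dark. Each well held 1–5 second-instar larvae on artificial diet treated with 50 μg/cm^2 test molecule applied in 90:10 acetone-water and dried.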

Series [2] relates to Yellow Fever Mosquito (Aedes aegypti, AEDSAE). To be noted: about 1 day-old larvae, 3 days, room temperature, scored on mortality. The gist of the method: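 Compounds from DMSO master plates (4000 ppm stock) diluted with 90:10 water:acetone, then about 1-day-old larvae in liver-powder water added. Held covered at room temperature for 3 days; each well scored for mortality.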

The subject of series [3] is Beet Armyworm (Spodoptera exigua, LAPHEG). The experiment in a line: Bioassay on Beet Armyworm (BAW), 128-well diet tray assay. The note with it: 168 h, 50 μg/cm^2 on artificial diet, second instar larvae, five to seven days, 25° C., read-out: BAW % Control (or Mortality) rating. The procedure, abridged:
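Mortality of second-instar larvae (one to five per well) was scored after five to seven days at 25 °C under 14:10 light-dark and averaged across eight wells. Each well's diet had received 50 μg/cm^2 test molecule from a 90:10 acetone-water solution, allowed to dry before infestation.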

Structures are written as SMILES.

In general, mortality refers to the share of the test organisms that died. `C[C@H](CSCC(F)(F)F)NC(=O)c1ccc(/C(F)=C/C(c2cc(Cl)c(F)c(Cl)c2)C(F)(F)F)cc1C(F)(F)F` (stereo partly drawn) [F36, 4-((Z)-3-(3,5-Dichloro-4-fluorophenyl)-1,4,4,4-tetrafluorobut-1-en-1-yl)-N—((R)-1-((2,2,2-trifluoroethyl)thio)propan-2-yl)-2-(trifluoromethyl)benzamide]: the mortality at 50 µg/cm2 in series [1] and in series [3] was 50 to 100% in each case. Further, the “YFM % Control (or Mortality) rating” value in series [2] is reported as “A (80-100)”.
Take `C[C@H](C[S+]([O-])CC(F)(F)F)NC(=O)c1ccc(/C(F)=C/C(c2cc(Cl)c(F)c(Cl)c2)C(F)(F)F)cc1C(F)(F)F` (stereo partly drawn) [F37, 4-((Z)-3-(3,5-Dichloro-4-fluorophenyl)-1,4,4,4-tetrafluorobut-1-en-1-yl)-N-((2R)-1-((2,2,2-trifluoroethyl)sulfinyl)propan-2-yl)-2-(trifluoromethyl)benzamide]: the mortality at 50 µg/cm2 in series [1] and in series [3] was 50 to 100% each time. Moreover, the “YFM % Control (or Mortality) rating” value in series [2] was “A (80-100)”.
Take `CC[S+]([O-])C[C@@H](C)NC(=O)c1ccc(/C(F)=C/C(c2cc(C)c(Cl)c(C)c2)C(F)(F)F)cc1C(F)(F)F` (stereo partly drawn) [F44, 4-((Z)-3-(4-Chloro-3,5-dimethylphenyl)-1,4,4,4-tetrafluorobut-1-en-1-yl)-N-((2R)-1-(ethylsulfinyl)propan-2-yl)-2-(trifluoromethyl)benzamide]: the mortality at 50 µg/cm2 in series [1] and in series [3] was 50 to 100% in each case. Further, the “YFM % Control (or Mortality) rating” value in series [2] is recorded as “A (80-100)”.
For the molecule `CCS(=O)(=O)C[C@@H](C)NC(=O)c1ccc(/C(F)=C/C(c2cc(Cl)cc(Cl)c2)C(F)(F)F)cc1C(F)(F)F` (stereo partly drawn) [F45, 4-((Z)-3-(3,5-Dichlorophenyl)-1,4,4,4-tetrafluorobut-1-en-1-yl)-N—((R)-1-(ethylsulfonyl)propan-2-yl)-2-(trifluoromethyl)benzamide], the mortality at 50 µg/cm2 in series [1] and in series [3] was 50 to 100% throughout. For the same molecule, in series [2], the “YFM % Control (or Mortality) rating” value was “A (80-100)”.
As for `O=C(NCCS(=O)(=O)CC(F)(F)F)c1ccc(/C(F)=C/C(c2cc(Cl)c(Cl)c(Cl)c2)C(F)(F)F)cc1C(F)(F)F` (stereo not drawn) [F49, (Z)-4-(1,4,4,4-tetrafluoro-3-(3,4,5-trichlorophenyl)but-1-en-1-yl)-N-(2-((2,2,2-trifluoroethyl)sulfonyl)ethyl)-2-(trifluoromethyl)benzamide], the mortality at 50 µg/cm2 in series [1] and in series [3] was 50 to 100% throughout. The “YFM % Control (or Mortality) rating” value in series [2] is “A (80-100)”.
Regarding `Cc1cc(C(/C=C(\F)c2ccc(C(=O)N[C@H](C)CSCC(F)(F)F)c(C(F)(F)F)c2)C(F)(F)F)cc(C)c1Cl` (stereo partly drawn) [F52, 4-((Z)-3-(4-Chloro-3,5-dimethylphenyl)-1,4,4,4-tetrafluorobut-1-en-1-yl)-N—((R)-1-((2,2,2-trifluoroethyl)thio)propan-2-yl)-2-(trifluoromethyl)benzamide], the mortality at 50 µg/cm2 in series [1] and in series [3] was 50 to 100% throughout. Further, in series [2], the “YFM % Control (or Mortality) rating” value is “D (No activity noticed in this bioassay)”.
For the molecule `CCS(=O)(=O)C[C@@H](C)NC(=O)c1ccc(/C(F)=C/C(c2cc(C)c(Cl)c(C)c2)C(F)(F)F)cc1C(F)(F)F` (stereo partly drawn) [F53, 4-((Z)-3-(4-Chloro-3,5-dimethylphenyl)-1,4,4,4-tetrafluorobut-1-en-1-yl)-N—((R)-1-(ethylsulfonyl)propan-2-yl)-2-(trifluoromethyl)benzamide], the mortality at 50 µg/cm2 in series [1] and in series [3] was 50 to 100% in each case. The “YFM % Control (or Mortality) rating” value in series [2] is given as “D (No activity noticed in this bioassay)”.
Consider `C[C@H](CS(=O)(=O)CC(F)(F)F)NC(=O)c1ccc(/C(F)=C/C(c2ccc(Br)c(Br)c2)C(F)(F)F)cc1C(F)(F)F` (stereo partly drawn) [F54, 4-((Z)-3-(3,4-Dibromophenyl)-1,4,4,4-tetrafluorobut-1-en-1-yl)-N—((R)-1-((2,2,2-trifluoroethyl)sulfonyl)propan-2-yl)-2-(trifluoromethyl)benzamide], for which the mortality at 50 µg/cm2 in series [1] and in series [3] was 50 to 100% each time. Also, the “YFM % Control (or Mortality) rating” value in series [2] is “A (80-100)”.
With `CCS(=O)(=O)C[C@@H](C)NC(=O)c1ccc(/C(F)=C/C(c2cc(Br)c(Cl)c(Br)c2)C(F)(F)F)cc1C(F)(F)F` (stereo partly drawn) [F55, 4-((Z)-3-(3,5-Dibromo-4-chlorophenyl)-1,4,4,4-tetrafluorobut-1-en-1-yl)-N—((R)-1-(ethylsulfonyl)propan-2-yl)-2-(trifluoromethyl)benzamide], the mortality at 50 µg/cm2 in series [1] and in series [3] was 50 to 100% in each case. In series [2], the “YFM % Control (or Mortality) rating” value is “A (80-100)”.
For the molecule `C[C@H](CS(=O)(=O)CC(F)(F)F)NC(=O)c1ccc(/C(F)=C/C(c2cc(Cl)cc(Br)c2)C(F)(F)F)cc1C(F)(F)F` (stereo partly drawn) [F65], the mortality at 50 µg/cm2 in series [1] and in series [3] was 50 to 100% in each case. For the same molecule, the “YFM % Control (or Mortality) rating” value in series [2] was “B (More than 0-Less than 80)”.
As for `Cc1cc(C(/C=C(\F)c2ccc(C(=O)N[C@H](C)CS(=O)(=O)CC(F)(F)F)c(C(F)(F)F)c2)C(F)(F)F)cc(Cl)c1Cl` (stereo partly drawn) [F78, 4-((Z)-3-(3,4-Dichloro-5-methylphenyl)-1,4,4,4-tetrafluorobut-1-en-1-yl)-N—((R)-1-((2,2,2-trifluoroethyl)sulfonyl)propan-2-yl)-2-(trifluoromethyl)benzamide], the mortality at 50 µg/cm2 in series [1] and in series [3] was 50 to 100% in each case. Also, the “YFM % Control (or Mortality) rating” value in series [2] is on record as “B (More than 0-Less than 80)”.
With `C[C@H](CS(=O)(=O)CC(F)(F)F)NC(=O)c1ccc(/C(F)=C/C(c2ccc(C(F)(F)F)c(Cl)c2)C(F)(F)F)cc1C(F)(F)F` (stereo partly drawn) [F91], the mortality at 50 µg/cm2 in series [1] and in series [3] was 50 to 100% throughout. For the same molecule, the “YFM % Control (or Mortality) rating” value in series [2] is listed as “D (No activity noticed in this bioassay)”.
Take `O=C(NCCSC(F)(F)F)c1ccc(/C(F)=C/C(c2cc(Cl)c(Cl)c(Cl)c2)C(F)(F)F)cc1C(F)(F)F` (stereo not drawn) [F92, (Z)-4-(1,4,4,4-tetrafluoro-3-(3,4,5-trichlorophenyl)but-1-en-1-yl)-2-(trifluoromethyl)-N-(2-((trifluoromethyl)thio)ethyl)benzamide]: the mortality at 50 µg/cm2 in series [1] and in series [3] was 50 to 100% throughout. Moreover, in series [2], the “YFM % Control (or Mortality) rating” value is given as “B (More than 0-Less than 80)”.
In the case of `C[C@H](CS(=O)(=O)CC(F)(F)F)NC(=O)c1ccc(/C(F)=C/C(c2ccc(C(F)(F)F)c(Br)c2)C(F)(F)F)cc1C(F)(F)F` (stereo partly drawn) [F95, 4-((Z)-3-(3-Bromo-4-(trifluoromethyl)phenyl)-1,4,4,4-tetrafluorobut-1-en-1-yl)-N—((R)-1-((2,2,2-trifluoroethyl)sulfonyl)propan-2-yl)-2-(trifluoromethyl)benzamide], the mortality at 50 µg/cm2 in series [1] and in series [3] was 50 to 100% in each case. Besides, the “YFM % Control (or Mortality) rating” value in series [2] is “A (80-100)”.
For the molecule `C[C@H](CS(=O)(=O)CC(F)(F)F)NC(=O)c1ccc(/C(F)=C/C(c2cc(Cl)c(Cl)c(Cl)c2)C(F)F)cc1C(F)(F)F` (stereo partly drawn) [F98, 4-((Z)-1,4,4-Trifluoro-3-(3,4,5-trichlorophenyl)but-1-en-1-yl)-N—((R)-1-((2,2,2-trifluoroethyl)sulfonyl)propan-2-yl)-2-(trifluoromethyl)benzamide], the mortality at 50 µg/cm2 in series [1] and in series [3] was 50 to 100% throughout. Further, in series [2], the “YFM % Control (or Mortality) rating” value was “A (80-100)”.
Regarding `C[C@H](C[S+]([O-])CCF)NC(=O)c1ccc(/C(F)=C/C(c2cc(Cl)c(Cl)c(Cl)c2)C(F)(F)F)cc1C(F)(F)F` (stereo partly drawn) [F99, N-((2R)-1-((2-Fluoroethyl)sulfinyl)propan-2-yl)-4-((Z)-1,4,4,4-tetrafluoro-3-(3,4,5-trichlorophenyl)but-1-en-1-yl)-2-(trifluoromethyl)benzamide], the mortality at 50 µg/cm2 in series [1] and in series [3] was 50 to 100% in each case. The “YFM % Control (or Mortality) rating” value in series [2] is reported as “A (80-100)”.
In the case of `C[C@H](CSCC(F)(F)F)NC(=O)c1ccc(/C(F)=C/C(c2ccc(F)c(C(F)(F)F)c2)C(F)(F)F)cc1C(F)(F)F` (stereo partly drawn) [F102, 4-((Z)-1,4,4,4-Tetrafluoro-3-(4-fluoro-3-(trifluoromethyl)phenyl)but-1-en-1-yl)-N—((R)-1-((2,2,2-trifluoroethyl)thio)propan-2-yl)-2-(trifluoromethyl)benzamide], the mortality at 50 µg/cm2 in series [1] and in series [3] was 50 to 100% in each case. Further, the “YFM % Control (or Mortality) rating” value in series [2] was “A (80-100)”.
In the case of `C[C@H](CS(=O)(=O)CC(F)(F)F)NC(=O)c1ccc(/C(F)=C/C(c2cc(F)c(F)c(Cl)c2)C(F)(F)F)cc1C(F)(F)F` (stereo partly drawn) [F103, 4-((Z)-3-(3-Chloro-4,5-difluorophenyl)-1,4,4,4-tetrafluorobut-1-en-1-yl)-N—((R)-1-((2,2,2-trifluoroethyl)sulfonyl)propan-2-yl)-2-(trifluoromethyl)benzamide], the mortality at 50 µg/cm2 in series [1] and in series [3] was 50 to 100% in each case. For the same molecule, the “YFM % Control (or Mortality) rating” value in series [2] was “A (80-100)”.
In the case of `C=Cc1c(Cl)cc(C(/C=C(\F)c2ccc(C(=O)N[C@H](C)CS(=O)(=O)CC)c(C(F)(F)F)c2)C(F)(F)F)cc1Cl` (stereo partly drawn) [F119, 4-((Z)-3-(3,5-Dichloro-4-vinylphenyl)-1,4,4,4-tetrafluorobut-1-en-1-yl)-N—((R)-1-(ethylsulfonyl)propan-2-yl)-2-(trifluoromethyl)benzamide], the mortality at 50 µg/cm2 in series [1] and in series [3] was 50 to 100% throughout. In addition, in series [2], the “YFM % Control (or Mortality) rating” value is “A (80-100)”.
